Source: paper PMC12469827, “Targeting G6PD with Benzimidazole and Thiazole Derivatives Suppresses SIRT 2 and VEGF Expression and Induces Cytotoxicity in Glioma Cells” (International Journal of Molecular Sciences, 2025)

How the values were obtained:
[1] = target: T1, Glucose-6-Phosphate Dehydrogenase (G6PD) (Homo sapiens, UniProt P11413); assay: residual activity of purified recombinant enzyme (NADPH at […] nm) after […] h incubation; supported by CD and intrinsic fluorescence; type: biochemical
[2] = target: T1, Glucose-6-Phosphate Dehydrogenase (G6PD); assay: residual activity of purified recombinant enzyme (NADPH at […] nm) after […] h incubation; supported by intrinsic fluorescence (minimal CD change); type: biochemical

T1 sequence (P11413 2-515): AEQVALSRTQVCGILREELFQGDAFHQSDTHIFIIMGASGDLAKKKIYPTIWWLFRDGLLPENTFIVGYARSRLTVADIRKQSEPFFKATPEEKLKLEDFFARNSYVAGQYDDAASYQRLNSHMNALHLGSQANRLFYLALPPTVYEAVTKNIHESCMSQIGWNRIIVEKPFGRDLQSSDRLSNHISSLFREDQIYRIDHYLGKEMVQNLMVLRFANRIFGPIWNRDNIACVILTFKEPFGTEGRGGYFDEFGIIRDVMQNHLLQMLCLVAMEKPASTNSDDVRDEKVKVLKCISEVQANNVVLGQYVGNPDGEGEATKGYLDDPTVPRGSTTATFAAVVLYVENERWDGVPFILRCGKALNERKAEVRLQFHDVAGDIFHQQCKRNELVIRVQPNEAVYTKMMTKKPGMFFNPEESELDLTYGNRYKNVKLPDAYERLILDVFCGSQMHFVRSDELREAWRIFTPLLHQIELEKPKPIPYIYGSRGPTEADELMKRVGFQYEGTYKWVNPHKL

O=[N+]([O-])c1ccc2nc([S+]([O-])Cc3ccccn3)[nH]c2c1 (stereo not drawn) [BZM-7]
IC50 ([1]; read-out: IC50): 40 µM

Cc1cnc(C[S+]([O-])c2nc3cc([N+](=O)[O-])ccc3[nH]2)c(C)c1OCC(F)(F)F (stereo not drawn) [BZM-9]
IC50 [2]: 42 µM

O=C(Nc1ccc(Cl)cc1)Nc1ncc([N+](=O)[O-])s1 [CNZ-3]
IC50 [1]: 121 µM
